Data taken from ChEMBL document CHEMBL1671847, “Hybrid dual aromatase-steroid sulfatase inhibitors with exquisite picomolar inhibitory activity” (ACS Med Chem Lett, 2011).

Target: T1, Aromatase (Homo sapiens, UniProt P11511)
T1 sequence (P11511 whole entry): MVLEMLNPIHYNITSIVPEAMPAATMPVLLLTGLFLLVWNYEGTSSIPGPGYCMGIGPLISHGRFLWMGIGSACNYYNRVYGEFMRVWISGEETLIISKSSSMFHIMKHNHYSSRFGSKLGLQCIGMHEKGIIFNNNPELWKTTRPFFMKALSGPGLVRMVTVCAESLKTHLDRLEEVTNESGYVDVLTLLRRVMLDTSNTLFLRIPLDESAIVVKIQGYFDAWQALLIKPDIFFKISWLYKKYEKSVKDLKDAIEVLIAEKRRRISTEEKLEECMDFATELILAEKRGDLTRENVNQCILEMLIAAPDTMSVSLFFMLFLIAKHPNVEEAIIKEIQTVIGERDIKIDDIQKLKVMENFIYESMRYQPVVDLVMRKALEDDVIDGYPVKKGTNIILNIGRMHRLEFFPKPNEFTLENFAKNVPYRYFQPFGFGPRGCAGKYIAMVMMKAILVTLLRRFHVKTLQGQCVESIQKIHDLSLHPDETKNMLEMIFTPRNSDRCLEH
Test: Inhibition of aromatase in human JEG-3 cells using [1beta-3H]androstenedione after 1 hr by scintillation spectrometry
Assay type: cell-based

`N#Cc1ccc(N(Cc2ccc(OS(N)(=O)=O)cc2)n2cnnc2)cc1-c1ccccc1` showed an IC50 of 0.21 nM.
